# Measurements reported in US9518038B2, “Condensation product of theanine derivative and carboxylic acid coumarin derivative, its intermediate, preparation method and use thereof” (SHANDONG YINGDONG YINGHAO BIOTECHNOLOGY, INC., priority 2012, dated 2016).
# Read-outs that look alike come from different tables or passages of the source.
# Key:
# Assay type in all cases: cell-based
# [1] = tested on: human gastric cancer cells BGC-823; test: MTT growth inhibition, BGC-823 cells; settings: 72 h after treatment, read-out: Drug concentration (IC50) at which 50% cancer cells survived
# [2] = tested on: human cervical cancer Hela cell lines; test: MTT growth inhibition, Hela cells; settings: Homo sapiens, 72 h after treatment, read-out: Drug concentration (IC50) at which 50% cancer cells survived
# [3] = tested on: human colon cancer cells HT29; test: MTT growth inhibition, HT29 cells; settings: HT-29, 72 h after treatment, read-out: Drug concentration (IC50) at which 50% cancer cells survived
# [4] = tested on: mouse melanoma cells B16; test: MTT growth inhibition, B16 cells; settings: Mus musculus, 72 h after treatment, read-out: Drug concentration (IC50) at which 50% cancer cells survived
# [5] = tested on: human pancreatic cancer cells BxPC3; test: MTT growth inhibition, BxPc3 cells; settings: Homo sapiens, BXPC-3, 72 h after treatment, read-out: Drug concentration (IC50) at which 50% cancer cells survived
# [6] = tested on: human neuroma cells D54; test: MTT growth inhibition, D54 cells; settings: Homo sapiens, 72 h after treatment, read-out: Drug concentration (IC50) at which 50% cancer cells survived
# [7] = tested on: NF-κB; test: Western Blotting, NF-κB level; settings: human liver cancer cells, Lewis lung cancer cells and other cancer cell lines and tumor tissues, read-out: Effective concentration (IC50) for inhibition of NF-κB
# From the text: (§1) Antibodies: primary antibodies of VEGFR, EGFR, c-Met, K-Ras, H-Ras, Akt, NF-κB, Cyclin D1, ER-alpha, Dvl-1, Dvl-2, Dvl-3, MMP-9, MMP2, β-catenin, Bcl-2, Bax, p53, p21, E-cadherin and Caspase3 protein, purchased from American Cell Signaling Technology Company and Santa Cruz Technology Company; and H3 acetylation, H4 acetylation and HDAC (HDAC3, HDAC4 and the like) Antibody Sample Kits, purchased from Cell Signaling Technology Company of the U.S.
# (§2) (3) polyacrylamide gel electrophoresis (SDS-PAGE): an equal amount of protein lysate sample was used to separate protein, film transfer, and blocking, treated with appropriate primary antibodies and secondary antibodies in sequence, and the film was washed, then the color was developed with ECL kit, and a blot protein band was detected by exposure of an X-ray film; and a Gel-Pro Analyzer was used for quantitative analysis of gray degree, optical density value of the control group and the drug treatment group in various concentration were respectively compared with that of internal reference, the obtained ratios were respectively compared with the control group, and the protein expression level was semi-quantified.
# [8] = tested on: nucleoprotein factor NF-κB (p65)-DNA binding activity; test: NF-κB (p65)-DNA binding activity (EMSA)
# From the text: The in-vitro experiment of the inhibitory effect against the NF-κB(p65)-DNA binding activity was applied with the chemiluminescent EMSA kit of Pierce Biotechnology Company of the U.S., the experimental method was strictly operated according to the description of the kit and the specific procedure were as follows:
# (1) Preparation of EMSA gel
# The cells treated by the drugs were extracted by the nucleoprotein extract solution (provided by Beyotime Biotechnology of Institute) to obtain the nucleoprotein extracts, and 10 μg/pipe of the nucleoprotein extracts were respectively used for sample reaction and electrophoresis detection and analysis shown in the following table.
# (2) Pre-electrophoresis: the gel was fixed in an electrophoresis tank, which was filled with a 0.5×TBE electrophoresis buffer solution, and electrophoresed under 10V/cm for 90 min. The probe binding reaction was as follows:
# The components were added in sequence into the EP pipe according to the above table, uniformly mixed and stood at room temperature for 15 min to eliminate possible non-specific binding of probe and protein. 1 μl of biotin-labeled probe NF-κB was respectively added and stood at room temperature for 20 min.
# (4) Film transfer: the process of transferring the nucleoprotein factors and the binding probe on the EMSA gel to the nylon film was electrically transferred under 380 mA in ice bath for 40 min.
# (5) Ultraviolet cross-linking: the nylon film was placed under a 254 nm ultraviolet lamp and irradiated for 15 min.
# (6) Detection of the biotin-labeled probe by chemiluminescence: the cross-linked nylon film was blocked with the blocking solution, a treated film was subjected to X-ray exposure, developing, and fixation according to the requirements of the kit, and the results were analyzed.
# [9] = tested on: p21; test: Western Blotting, increase of p21 level; settings: liver cancer cells, Lewis lung cancer cells and other cancer cell lines and tumor tissue protein lysates, 48 h treatment, read-out: Effective concentration to increase p21 by 50%
# From the text: as §1, §2
smiles,measurement,setting,value
"CCNC(=O)CC[C@@H](NC(=O)c1cc2cc(Cl)cc(Cl)c2oc1=O)C(=O)OCC [Compound Ig, (R)-2-(6,8-dichloro-2-oxo-2H-benzopyran-3-carboxamido)-5-ethylamino-5-oxo-pentanoic ethyl ester]",IC50,[1],60 µM
same,IC50,[2],66 µM
same,IC50,[3],99 µM
same,IC50,[4],125 µM
same,IC50,[5],119 µM
same,IC50,[6],79 µM
same,IC50,[7],< 100 µM
same,IC50,"[8]; A549 cells, EMSA, nuclear protein extracts, 48 h, read-out: Effective concentration for 50% inhibition of binding of nucleoprotein factor NF-kB (p65) and DNA",< 70 µM
same,IC50,"[8]; Hela cells, EMSA, nuclear protein extracts, 48 h, read-out: Effective concentration for 50% inhibition of binding of nucleoprotein factor NF-kB (p65) and DNA",< 70 µM
same,IC50,"[8]; MCF7 cells, EMSA, nuclear protein extracts, 48 h, read-out: Effective concentration for 50% inhibition of binding of nucleoprotein factor NF-kB (p65) and DNA",< 70 µM
same,IC50,"[8]; MDA-MB231 cells, EMSA, nuclear protein extracts, 48 h, read-out: Effective concentration for 50% inhibition of binding of nucleoprotein factor NF-kB (p65) and DNA",< 70 µM
same,IC50,"[8]; PANC-1 cells, EMSA, nuclear protein extracts, 48 h, read-out: Effective concentration for 50% inhibition of binding of nucleoprotein factor NF-kB (p65) and DNA",< 70 µM
same,IC50,"[8]; SMMC7721 cells, EMSA, nuclear protein extracts, 48 h, read-out: Effective concentration for 50% inhibition of binding of nucleoprotein factor NF-kB (p65) and DNA",< 70 µM
same,IC50,"[8]; human liver cancer cells, Lewis lung cancer cells and other cancer cell lines and tumor tissues, read-out: Effective concentration (IC50) for inhibition of NF-κB-DNA binding activity",< 125 µM
same,EC50,[9],< 70 µM
